The supplement of paper PMC10307832

Key:
Selumetinib + Dasatinib = compound: Cn1cnc2c(F)c(Nc3ccc(Br)cc3Cl)c(C(=O)NOCCO)cc21 [Selumetinib] + Cc1nc(Nc2ncc(C(=O)Nc3c(C)cccc3Cl)s2)cc(N2CCN(CCO)CC2)n1 [Dasatinib] (partner 0.075 µM); experiment: relative viability (nuclei count vs DMSO), 5 days (fraction); higher = more cells survive
Summary of the method: (§1)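 Relative viability divides the nuclei count in treated wells by that in vehicle wells. Lung cancer cell lines were seeded in 1536-well plates, dosed by pin tool the next day, and fixed and stained after 5 days in one step with final 0.05% Triton X-100, 1% formaldehyde and 1 ug/ml Hoechst. Dosing was a single drug or a fixed anchor-drug dose plus five library-drug doses (not always all listed) in √10 steps, and values are medians of duplicate plates imaged at 4×.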

Venetoclax + Trametinib = compound: CC1(C)CCC(CN2CCN(c3ccc(C(=O)NS(=O)(=O)c4ccc(NCC5CCOCC5)c([N+](=O)[O-])c4)c(Oc4cnc5[nH]ccc5c4)c3)CC2)=C(c2ccc(Cl)cc2)C1 [Venetoclax] + CC(=O)Nc1cccc(-n2c(=O)n(C3CC3)c(=O)c3c(Nc4ccc(I)cc4F)n(C)c(=O)c(C)c32)c1 [Trametinib] (partner 0.02 µM); experiment: as above
Summary of the method: as §1

Cell Line	relative viability (Selumetinib + Dasatinib; first compound 0.02 µM)	relative viability (Selumetinib + Dasatinib; first compound 0.06325 µM)	relative viability (Selumetinib + Dasatinib; first compound 0.2 µM)	relative viability (Selumetinib + Dasatinib; first compound 0.6325 µM)	relative viability (Venetoclax + Trametinib; first compound 0.01 µM)	relative viability (Venetoclax + Trametinib; first compound 0.03162 µM)	relative viability (Venetoclax + Trametinib; first compound 0.1 µM)	relative viability (Venetoclax + Trametinib; first compound 0.3162 µM)	relative viability (Venetoclax + Trametinib; first compound 1 µM)
EMC-BAC-2	0.352	0.419	0.379	0.391	0.915	0.965	0.887	0.857	0.906
NCI-H322M	0.248	0.237	0.24	0.263	0.528	0.519	0.436	0.534	0.562
NCI-H358	0.136	0.111	0.118	0.129	0.117	0.14	0.106	0.126	0.135
NCI-H1944	0.186	0.186	0.161	0.167	0.511	0.474	0.394	0.432	0.361
NCI-H2342	0.362	0.32	0.37	0.293	0.77	0.762	0.979	0.839	0.819
H3255	0.41	0.358	0.329	0.344	0.586	0.648	0.603	0.517	0.582
NCI-H1993	0.545	0.534	0.572	0.609	0.509	0.518	0.506	0.591	0.535
NCI-H650	0.518	0.578	0.65	0.534	0.875	0.995	0.892	0.892	0.963
NCI-H460	0.332	0.272	0.155	0.128	0.171	0.229	0.131	0.153	0.131
NCI-H1437	0.334	0.231	0.197	0.215	0.5	0.52	0.529	0.463	0.435
NCI-H2347	0.262	0.189	0.184	0.191	0.327	0.288	0.254	0.298	0.267
NCI-H522	1.96	0.849	0.861	0.96	0.716	0.747	0.674	0.728	0.655
LC-2-ad	0.724	0.501	0.427	0.559	0.927	0.84	0.898	0.874	0.845
NCI-H661	0.902	0.821	0.805	0.731	0.528	0.606	0.538	0.525	0.532
SK-MES-1	0.284	0.271	0.235	0.226	0.615	0.636	0.536	0.526	0.554
NCI-H2170	0.533	0.515	0.48	0.412	0.859	0.97	0.841	0.812	0.87
NCI-H2126	0.484	0.483	0.498	0.515	0.544	0.618	0.538	0.566	0.521
EPLC-272H	0.294	0.297	0.355	0.174	0.287	0.284	0.238	0.259	0.263
